The values below come from ChEMBL document CHEMBL3525956, “Species independence in brain tissue binding using brain homogenates” (Drug Metab Dispos, 2011).

Series [1] can be described thus: Fraction unbound in human occipital cortex at 1 uM after 6 hrs by equilibrium dialysis method. A general note: Equilibrium dialysis compares concentrations on both sides of a semipermeable membrane.
A short description of series [2]: Fraction unbound in Wistar Han rat brain homogenates at 1 uM after 6 hrs by equilibrium dialysis method. To be noted: brain homogenate.
A short description of series [3]: Fraction unbound in Beagle dog brain homogenates at 1 uM after 6 hrs by equilibrium dialysis method. The following applies: brain homogenate.
Series [4] is described as follows: Fraction unbound in Hartley guinea pig brain homogenates at 1 uM after 6 hrs by equilibrium dialysis method. The following applies: brain homogenate.
Series [5] in a line: Fraction unbound in cynomolgus monkey brain homogenates at 1 uM after 6 hrs by equilibrium dialysis method. To be noted: brain homogenate.
Series [6] can be described thus: Fraction unbound in CD-1 mouse brain homogenates at 1 uM after 6 hrs by equilibrium dialysis method. The following applies: brain homogenate.
A short description of series [7]: Fraction unbound in Sprague-Dawley rat brain homogenates at 1 uM after 6 hrs by equilibrium dialysis method. The following applies: brain homogenate.

What is called fraction unbound is free concentration divided by total concentration. Turning to `CO[C@H]1/C=C/O[C@@]2(C)Oc3c(C)c(O)c4c(O)c(c(/C=N/N5CCN(C)CC5)c(O)c4c3C2=O)NC(=O)/C(C)=C\C=C\[C@H](C)[C@H](O)[C@@H](C)[C@@H](O)[C@@H](C)[C@H](OC(C)=O)[C@@H]1C` [RIFAMPIN], the fraction unbound at 6 h, 1 µM in series [1] was 0.119; in series [2], 0.121; in series [3], 0.259; in series [4] it was 0.118; in series [5] it was 0.162; in series [6], 0.121. The fraction unbound at 6 h, 1 µM in series [7] stood at 0.068.

Consider `CC(NC(C)(C)C)C(=O)c1cccc(Cl)c1` (stereo not given) [BUPROPION], for which the fraction unbound at 6 h, 1 µM in series [1] is 0.195; in series [2], 0.132; in series [3], 0.213; in series [4] it was 0.177; in series [5], 0.167; in series [6], 0.133. Besides, the fraction unbound at 6 h, 1 µM in series [7] was 0.171.

Regarding `CCCCN1CCCCC1C(=O)Nc1c(C)cccc1C` (stereo not given) [BUPIVACAINE], the fraction unbound at 6 h, 1 µM in series [1] was 0.232; in series [2], 0.15; in series [3], 0.211; in series [4], 0.204; in series [5] it was 0.195; in series [6], 0.274. The compound also showed a free fraction (fraction unbound) at 6 h, 1 µM in series [7] of 0.098.

For `COCCOC(=O)C1=C(C)NC(C)=C(C(=O)OC(C)C)C1c1cccc([N+](=O)[O-])c1` (stereo not given) [NIMODIPINE], the fraction unbound at 6 h, 1 µM in series [1] was determined as 0.008; in series [2], 0.01; in series [3], 0.007; in series [4], 0.007; in series [5], 0.009; in series [6] it was 0.007. In series [7], the fraction unbound at 6 h, 1 µM was 0.009.

For the compound `CN1Cc2c(N)cccc2C(c2ccccc2)C1` (stereo not given) [NOMIFENSINE], the fraction unbound at 6 h, 1 µM in series [1] is 0.071; in series [2], 0.066; in series [3] it was 0.072; in series [4], 0.068; in series [5], 0.068; in series [6], 0.078. For the same compound, the fraction unbound at 6 h, 1 µM in series [7] was determined as 0.064.
